Results published in US7511041B2, “Fused azole-pyrimidine derivatives” (Bayer Pharmaceuticals Corporation, priority 2002, dated 2009).
Structures can show the parent of a compound that is named as a salt. Where two headings read alike, the source gives them in different places.

Legend:
[1] = biological target: T1, Recombinant human PI3Kγ (full length human PI3K p110γ) (Homo sapiens, UniProt P48736); test: Kinase assay of PI3Kγ (solid-phase lipid kinase assay); type: biochemical
T1 construct: full length human PI3K p110γ fused with a His6-tag at the C-terminus; His6 (C); purchased ALEXIS BIOCHEMICALS #201-055-C010; host or cells: S. frugiperda 9 insect cells
From the text: [Determination of IC50 Values of Compounds in Kinase Assay of PI3Kγ]
Chemicals and Assay Materials
LABORATORIES (Toronto, Canada). Recombinant human PI3Kγ (full length human PI3K p110γ fused with a His6-tag at the C-terminus expressed in S. frugiperda 9 insect cells) was obtained from ALEXIS BIOCHEMICALS (#201-055-C010; San Diego, Calif.). […] BIOTECH (Buckinghamshire, UK) and ROCHE DIAGNOSTICS (Mannheim, Germany), respectively. Scintillation cocktails and MicroScint PS™ were purchased from PACKARD (Meriden, Conn.). Maxisorp™ plates were purchased from NALGE NUNC INTERNATIONAL K.K. (Tokyo, Japan). All other chemicals not further specified were from WAKO PURE CHEMICALS (Osaka, Japan).
Solid-Phase Lipid Kinase Assay
The plates were subsequently air-dried by incubation for at least 2 hours in a fume hood. The reaction was set up by mixing 25 μl/well of assay buffer 2× (100 mM MOPSO/NaOH, 0.2 M NaCl, pH 7.0, 8 mM MgCl2, 2 mg/ml BSA (fatty acid-free)) and 50 ng/well PI3Kγ in the lipid pre-coated plate and 10× test compounds were added in 2% DMSO. The reaction was started by adding 20 μl/well of ATP mix (final 10 μM ATP; 0.05 μCi/well [γ^33P]ATP). After incubation at RT for 2 hours, the reaction was terminated by adding 50 μl/well stop solution (50 mM EDTA, pH 8.0). The plate was then washed twice with Tris-buffered saline (TBS, pH 7.4). MicroScint PS™ (PACKARD) scintillation mix was added at 100 μl/well, and radioactivity was counted by using a TopCount™ (PACKARD) scintillation counter.
The inhibition percent at each concentration of compound was calculated, and IC50 values were determined from the inhibition of curve.

[2] = in vitro PI3K-γ inhibitory activity, class symbols A-D, read-out: in vitro PI3K-gamma
[3] = in vitro PI3K-γ inhibitory activity, class symbols, read-out: in vitro PI3K-gamma
[4] = Table 1, isozyme not given, read-out: in vitro

T1 sequence (P48736 whole entry, the tested form may be a part): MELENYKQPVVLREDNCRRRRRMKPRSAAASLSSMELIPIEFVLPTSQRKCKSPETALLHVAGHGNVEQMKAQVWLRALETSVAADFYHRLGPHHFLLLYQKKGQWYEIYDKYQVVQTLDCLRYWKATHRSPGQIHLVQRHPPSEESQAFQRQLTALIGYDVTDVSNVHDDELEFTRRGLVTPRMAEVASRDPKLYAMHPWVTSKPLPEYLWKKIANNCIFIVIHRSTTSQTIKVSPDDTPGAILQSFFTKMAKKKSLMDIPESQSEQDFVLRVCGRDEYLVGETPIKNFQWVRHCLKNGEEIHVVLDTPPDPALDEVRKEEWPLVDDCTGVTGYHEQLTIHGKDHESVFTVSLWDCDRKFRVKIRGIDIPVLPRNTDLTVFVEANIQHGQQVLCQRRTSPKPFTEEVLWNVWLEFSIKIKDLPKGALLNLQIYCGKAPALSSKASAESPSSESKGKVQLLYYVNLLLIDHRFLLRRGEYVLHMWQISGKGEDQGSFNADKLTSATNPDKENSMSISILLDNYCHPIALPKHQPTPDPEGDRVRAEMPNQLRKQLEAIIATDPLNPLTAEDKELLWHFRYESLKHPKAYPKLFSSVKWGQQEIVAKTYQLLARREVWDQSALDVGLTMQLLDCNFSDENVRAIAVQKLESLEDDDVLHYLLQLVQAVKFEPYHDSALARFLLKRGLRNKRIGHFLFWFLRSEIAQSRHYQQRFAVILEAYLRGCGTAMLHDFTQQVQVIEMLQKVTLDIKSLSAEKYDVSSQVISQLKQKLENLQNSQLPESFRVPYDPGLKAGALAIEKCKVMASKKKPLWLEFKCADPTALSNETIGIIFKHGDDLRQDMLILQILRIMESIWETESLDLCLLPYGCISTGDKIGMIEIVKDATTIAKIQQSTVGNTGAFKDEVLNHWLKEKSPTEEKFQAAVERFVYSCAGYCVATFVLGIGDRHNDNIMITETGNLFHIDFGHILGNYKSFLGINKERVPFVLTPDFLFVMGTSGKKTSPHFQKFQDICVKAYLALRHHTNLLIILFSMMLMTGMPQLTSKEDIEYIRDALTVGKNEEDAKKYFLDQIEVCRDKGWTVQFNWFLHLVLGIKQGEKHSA

O=C(NC1=Nc2ccccc2C2=NCCN12)c1ccco1.O=C(O)C(F)(F)F [Example 2-300]
IC50 [1, 2]: 0.1 to 0.5 µM | melting point: 230 to 232 °C

Cc1ccc(C(=O)NC2=Nc3ccccc3C3=NCCN23)cc1 [Example 2-218]
IC50 [1, 2]: > 2 µM | melting point: 185 to 186 °C

O=C(NC1=Nc2cc(OCCCO)ccc2C2=NCCN12)c1cccnc1 [Example 2-199]
IC50 [1, 3]: < 0.1 µM | melting point: 127 °C

COc1cc2c(cc1Br)C1=NCCN1C(NC(=O)c1cccnc1)=N2.Cl [Example 2-67]
IC50 [1, 3]: 0.1 to 0.5 µM | melting point: 289 °C (dec.)

O=C(NC1=Nc2ccccc2C2=NCCN12)C1CCCCN1C(=O)OCc1ccccc1 (centres unmarked) [Example 2-337]
IC50 [1, 2]: > 2 µM | melting point: 119 to 120 °C

O=[N+]([O-])c1ccc(/C(O)=C/C2=Nc3ccccc3C3=NCCN23)cc1 [Example 1-168]
IC50 [1, 4]: > 2 µM | melting point: 240 to 248 °C

O/C(=C\C1=Nc2cc(CN3CCOCC3)ccc2C2=NCCN12)c1ccc2[nH]cnc2c1 [Example 1-115]
IC50 [1, 4]: 0.1 to 0.5 µM | melting point: 219 °C

CC(C)(C)OC(=O)N1CCCC(C(=O)NC2=Nc3ccccc3C3=NCCN23)C1 (centres unmarked) [Example 2-338]
IC50 [1, 2]: > 2 µM | melting point: 147 to 148 °C

O=C(NC1=Nc2ccc(Cl)cc2C2=NCCN12)c1cccs1 [Example 2-355]
IC50 [1, 2]: 0.5 to 2 µM | melting point: 174 °C

O/C(=C\C1=Nc2ccccc2C2=NCCN12)c1cc[nH]c1 [Example 1-151]
IC50 [1, 4]: < 0.1 µM | melting point: 247 to 249 °C

CN1CCN(c2ccc3c(c2)N=C(/C=C(\O)c2ccc4[nH]cnc4c2)N2CCN=C32)CC1 [Example 1-107]
IC50 [1, 4]: < 0.1 µM | melting point: 207 °C

O/C(=C\C1=Nc2cc(N3CCOCC3)ccc2C2=NCCN12)c1cncc(O)c1 [Example 1-98]
IC50 [1, 4]: < 0.1 µM | melting point: 337 °C (dec.)

O=C(NC1=Nc2c(F)cccc2C2=NCCN12)c1cccnc1 [Example 2-99]
IC50 [1, 3]: 0.1 to 0.5 µM | melting point: 243 °C

COc1c(OCCN2CCCC2)ccc2c1N=C(/C=C(\O)c1cccnc1)N1CCN=C21 [Example 1-21]
IC50 [1, 4]: < 0.1 µM | melting point: 204 to 205 °C

Cc1ccc2c(c1)C1=NCCN1C(NC(=O)c1cccnc1)=N2 [Example 2-90]
IC50 [1, 3]: < 0.1 µM | melting point: 210 °C

O/C(=C\C1=Nc2ccccc2C2=NCCN12)c1nccs1 [Example 1-154]
IC50 [1, 4]: < 0.1 µM | melting point: 208 to 210 °C

O=C(NC1=Nc2ccccc2C2=NCCN12)c1ccccc1Cl.O=C(O)C(F)(F)F [Example 2-226]
IC50 [1, 2]: > 2 µM | melting point: 221 to 224 °C

CCC(=O)NC1=Nc2ccccc2C2=NCCN12 [Example 2-327]
IC50 [1, 2]: > 2 µM

CCNc1ccc(/C(O)=C/C2=Nc3cc(OC)c(OC)cc3C3=NCCN23)cn1 [Example 1-53]
IC50 [1, 4]: 0.1 to 0.5 µM

COc1cc2c(cc1OC)C1=NCCN1C(NC(=O)c1ccccc1)=N2 [Example 2-342]
IC50 [1, 2]: 0.5 to 2 µM

CC(C)(C)OC(=O)N1CCC(C(=O)NC2=Nc3ccccc3C3=NCCN23)CC1 [Example 2-340]
IC50 [1, 2]: > 2 µM

CC(C)(C)OC(=O)N1CCCCC1C(=O)NC1=Nc2ccccc2C2=NCCN12 (centres unmarked) [Example 2-336]
IC50 [1, 2]: > 2 µM

O/C(=C\C1=Nc2cc(C(F)(F)F)ccc2C2=NCCN12)c1cccnc1 [Example 1-188]
IC50 [1, 4]: 0.5 to 2 µM

O/C(=C\c1nc2ccccc2c2nccn12)c1cccs1 (as salt: hydrochloride) [Example 3-1, (Z)-2-Imidazo[1,2-c]quinazolin-5-yl-1-(2-thienyl)ethenol]
melting point: 263 °C (dec.)

CNc1ccc(C(=O)NC2=Nc3ccccc3C3=NCCN23)cn1.Cl [Example 2-154]
melting point: 300 °C (dec.)

Cl.O=C(NC1=Nc2ccccc2C2=NCCN12)c1ccc(-n2cccn2)cc1 [Example 2-271]
melting point: 319 °C (dec.)

COc1cc2c(cc1OC)C1=NCCN1C(NC(=O)c1cccnc1)=N2 [Example 2-53]
IC50 [1, 3]: 0.1 to 0.5 µM

Cc1cc(C(=O)NC2=Nc3ccccc3C3=NCCN23)cnc1N.Cl [Example 2-160]
melting point: 311 °C (dec.)

Cl.O/C(=C\C1=Nc2c(cccc2C(F)(F)F)C2=NCCN12)c1cccnc1 [Example 1-81]
melting point: > 290 °C

Cc1nc(N)ccc1C(=O)NC1=Nc2ccccc2C2=NCCN12.Cl [Example 2-158]
melting point: 289 °C (dec.)

Cc1ccncc1C(=O)NC1=Nc2ccccc2C2=NCCN12.Cl [Example 2-137]
melting point: 291 °C (dec.)

CN(C)c1cccc(C(=O)NC2=Nc3ccccc3C3=NCCN23)c1.Cl [Example 2-259]
melting point: 266 °C (dec.)

Cl.O/C(=C\C1=Nc2c(CN3CCOCC3)cccc2C2=NCCN12)c1cccnc1 [Example 1-207]
melting point: 259 °C (dec.)

Cl.O=C(NC1=Nc2ccccc2C2=NCCN12)c1ccc(-n2cccc2)cc1 [Example 2-267]
melting point: 309 °C (dec.)

Cl.O=C(NC1=Nc2ccccc2C2=NCCN12)c1ccc(-n2ccnc2)cc1 [Example 2-269]
melting point: 324 °C (dec.)

COc1cc(OC)c2c(c1)C1=NCCN1C(NC(=O)c1ccc(NC(C)=O)nc1)=N2.Cl [Example 2-71]
melting point: 270 °C (dec.)

Cc1cccc2c1N=C(NC(=O)c1ccc3[nH]cnc3c1)N1CCN=C21.Cl [Example 2-110]
melting point: > 290 °C

Cl.NS(=O)(=O)c1ccc(C(=O)NC2=Nc3ccccc3C3=NCCN23)cc1 [Example 2-248]
melting point: 308 °C (dec.)

COc1ccc2c(c1OC)N=C(NC(=O)c1cnc3[nH]cnc3c1)N1CCN=C21.Cl [Example 2-52]
melting point: 210 °C (dec.)

O=C(NC1=Nc2ccccc2C2=NCCN12)c1cccnc1 (as salt: hydrochloride) [Example 2-2, N-(2,3-Dihydroimidazo[1,2-c]quinazolin-5-yl)nicotinamide hydrochloride]
melting point: 289 °C (dec.)

CCOC(=O)c1cc(C(=O)NC2=Nc3ccccc3C3=NCCN23)cc(C(=O)OCC)c1.Cl [Example 2-275]
melting point: 282 °C

Cl.NS(=O)(=O)c1ccc(C(=O)NC2=Nc3ccccc3C3=NCCN23)c(Cl)c1 [Example 2-250]
melting point: 300 °C (dec.)

O=C(NC1=Nc2ccccc2C2=NCCN12)c1cnccn1.O=C(O)C(F)(F)F [Example 2-293]
melting point: 234 °C (dec.)

COc1cc2c(cc1OC)C1=NCCN1C(NC(=O)c1ccc(NC(C)=O)nc1)=N2.Cl [Example 2-58]
melting point: 279 °C

CSc1ccc(C(=O)NC2=Nc3ccccc3C3=NCCN23)cc1.Cl [Example 2-244]
melting point: 292 °C (dec.)

CS(=O)(=O)c1ccc(C(=O)NC2=Nc3ccccc3C3=NCCN23)cc1.Cl [Example 2-246]
melting point: 320 °C (dec.)

COc1ccc2c(c1)N=C(NC(=O)c1ccc3[nH]cnc3c1)N1CCN=C21.Cl [Example 2-26]
melting point: 233 °C

Cl.O=C(NC1=Nc2ccccc2C2=NCCN12)c1cnc2[nH]cnc2c1 [Example 2-173]
melting point: 287 °C (dec.)

Cc1nc2ccccn2c1C(=O)NC1=Nc2ccccc2C2=NCCN12.Cl [Example 2-171]
melting point: 328 °C (dec.)

COc1cc(OC)c2c(c1)C1=NCCN1C(/C=C(\O)c1cccnc1)=N2.Cl [Example 1-43]
melting point: 290 °C (dec.)

Cl.O/C(=C\C1=Nc2ccccc2C2=NCCN12)c1cccs1 [Example 1-147]
melting point: > 300 °C
